How the values were obtained:
Assay in all cases: NCI-60 screen (SRB)
Assay type in all cases: cell-based
[1] = system: U251; settings: Homo sapiens, U-251; U251, CNS Cancer
Method: (§1) The human tumor cell lines of the cancer screening panel are grown in RPMI 1640 medium containing 5% fetal bovine serum and 2 mM L-glutamine. For a typical screening experiment, cells are inoculated into 96 well microtiter plates in 100 μL at plating densities ranging from 5,000 to 40,000 cells/well depending on the doubling time of individual cell lines. After cell inoculation, the microtiter plates are incubated at 37° C., 5% CO2, 95% air and 100% relative humidity for 24 h prior to addition of experimental drugs. After 24 h, two plates of each cell line are fixed in situ with TCA, to represent a measurement of the cell population for each cell line at the time of drug addition (Tz). Experimental drugs are solubilized in dimethyl sulfoxide at 400-fold the desired final maximum test concentration and stored frozen prior to use. At the time of drug addition, an aliquot of frozen concentrate is thawed and diluted to twice the desired final maximum test concentration with complete medium containing 50 µg/ml gentamicin. An additional four, 10-fold or M log serial dilutions are made to provide a total of five drug concentrations plus control. Aliquots of 100 μl of these different drug dilutions are added to the appropriate microtiter wells already containing 100 μl of medium, resulting in the required final drug concentrations. Following drug addition, the plates are incubated for an additional 48 h at 37° C., 5% CO2, 95% air, and 100% relative humidity. For adherent cells, the assay is terminated by the addition of cold TCA. Cells are fixed in situ by the gentle addition of 50 μl of cold 50% (w/v) TCA (final concentration, 10% TCA) and incubated for 60 minutes at 4° C. The supernatant is discarded, and the plates are washed five times with tap water and air dried. Sulforhodamine B (SRB) solution (100 l) at 0.4% (w/v) in 1% acetic acid is added to each well, and plates are incubated for 10 minutes at room temperature. After staining, unbound dye is removed by washing five times with 1% acetic acid and the plates are air dried. Bound stain is subsequently solubilized with 10 mM trizma base, and the absorbance is read on an automated plate reader at a wavelength of 515 nm. For suspension cells, the methodology is the same except that the assay is terminated by fixing settled cells at the bottom of the wells by gently adding 50 μl of 80% TCA (final concentration, 16% TCA).

[2] = system: SK-OV-3; settings: Homo sapiens; SK-OV-3, Ovarian Cancer
Method: as §1

[3] = system: T-47D; settings: Homo sapiens, T47D, Breast Cancer
Method: as §1

[4] = system: M14; settings: Homo sapiens; M14, Melanoma
Method: as §1

[5] = system: HOP-62; settings: Homo sapiens; HOP-62, Non-Small Cell Lung Cancer
Method: as §1

[6] = system: UACC-62; settings: Homo sapiens; UACC-62, Melanoma
Method: as §1

[7] = system: MDA-MB-468; settings: Homo sapiens; MDA-MB-468, Breast Cancer
Method: as §1

[8] = system: MALME-3M; settings: Homo sapiens, Melanoma
Method: as §1

[9] = system: OVCAR-3; settings: Homo sapiens; OVCAR-3, Ovarian Cancer
Method: as §1

[10] = system: MDA-MB-231/ATCC; settings: Homo sapiens, Breast Cancer
Method: as §1

[11] = system: TK-10; settings: Homo sapiens; TK-10, Renal Cancer
Method: as §1

[12] = system: ACHN; settings: Homo sapiens, Renal Cancer
Method: as §1

[13] = system: NCI-H226; settings: Homo sapiens; NCI-H226, Non-Small Cell Lung Cancer
Method: as §1

[14] = system: KM12; settings: Homo sapiens; KM12, Colon Cancer
Method: as §1

[15] = system: OVCAR-5; settings: Homo sapiens; OVCAR-5, Ovarian Cancer
Method: as §1

[16] = system: NCI-H522; settings: Homo sapiens; NCI-H522, Non-Small Cell Lung Cancer
Method: as §1

[17] = system: NCI-H322M; settings: Homo sapiens, Non-Small Cell Lung Cancer
Method: as §1

[18] = system: HL-60(TB); settings: Homo sapiens, Leukemia
Method: as §1

[19] = system: LOX IMVI; settings: Homo sapiens, Melanoma
Method: as §1

[20] = system: A498; settings: Homo sapiens; A498, Renal Cancer
Method: as §1

[21] = system: HOP-92; settings: Homo sapiens; HOP-92, Non-Small Cell Lung Cancer
Method: as §1

[22] = system: PC-3; settings: Homo sapiens; PC-3, Prostate Cancer
Method: as §1

[23] = system: SW-620; settings: Homo sapiens; SW-620, Colon Cancer
Method: as §1

[24] = system: UO-31; settings: Homo sapiens; UO-31, Renal Cancer
Method: as §1

[25] = system: A549/ATCC; settings: Homo sapiens, Non-Small Cell Lung Cancer
Method: as §1

[26] = system: NCI-H460; settings: Homo sapiens; NCI-H460, Non-Small Cell Lung Cancer
Method: as §1

[27] = system: HT29; settings: Homo sapiens, HT-29; HT29, Colon Cancer
Method: as §1

[28] = system: NCI/ADR-RES; settings: Homo sapiens, Ovarian Cancer
Method: as §1

[29] = system: HCT-116; settings: Homo sapiens; HCT-116, Colon Cancer
Method: as §1

| SMILES | GI50 [1] | GI50 [2] | GI50 [3] | GI50 [4] | GI50 [5] | GI50 [6] | GI50 [7] | GI50 [8] | GI50 [9] | GI50 [10] | GI50 [11] | GI50 [12] | GI50 [13] | GI50 [14] | GI50 [15] | GI50 [16] | GI50 [17] | GI50 [18] | GI50 [19] | GI50 [20] | further results |
| --- | --- | --- | --- | --- | --- | --- | --- | --- | --- | --- | --- | --- | --- | --- | --- | --- | --- | --- | --- | --- | --- |
| COc1cc2nccc(Oc3ccc(NC(=O)C4(NC(=O)c5ccc(F)cc5)CC4)cc3F)c2cc1OC [Cbo-02, N-(1-((4-((6,7-diMethoxyquinolin-4-yl)oxy)-3-fluorophenyl)carbamoyl)cyclopropyl)-4-fluorobenzamide] | 2880 nM | 2270 nM | 2120 nM | 1910 nM | 1820 nM | 1840 nM | 1720 nM | 1740 nM | 2400 nM | 1740 nM | 1830 nM | 2140 nM | 1580 nM | 2000 nM | 1910 nM | 2070 nM | 3940 nM | 2200 nM | 1990 nM | 3280 nM | GI50 [21]: 1260 nM; GI50 [22]: 3940 nM; GI50 [23]: 1630 nM; GI50 [24]: 2590 nM; GI50 [25]: 3270 nM; GI50 [26]: 2750 nM; GI50 [27]: 1820 nM; GI50 [28]: 4900 nM; GI50 [29]: 1520 nM |
| COc1cc2nccc(Oc3ccc(NC(=O)C4(NC(=O)c5ccc(F)cc5)CC4)cc3F)c2cc1Oc1ccc(N)cc1F [Cbo-10] | > 100000 nM | 302 nM | 1650 nM | 1490 nM | 3480 nM | 915 nM | 1730 nM | 313 nM | > 100000 nM | 4430 nM | 455 nM | 683 nM | 5290 nM | 130 nM | 644 nM | 450 nM | 518 nM | 521 nM | 1780 nM | > 100000 nM | GI50 [21]: 141 nM; GI50 [22]: > 100000 nM; GI50 [23]: 661 nM; GI50 [24]: 1810 nM; GI50 [25]: 483 nM; GI50 [26]: 1300 nM; GI50 [27]: 413 nM; GI50 [28]: > 100000 nM; GI50 [29]: 2630 nM |
| COc1cc2nccc(Oc3ccc(NC(=O)C4(C(=O)Nc5ccc(F)cc5)CC4)cc3F)c2cc1Oc1ccc(N)cc1F [Cbo-23] | 2380 nM | 464 nM | 617 nM | 459 nM | 1200 nM | 112 nM | 1120 nM | 298 nM | 829 nM | 981 nM | 224 nM | 292 nM | 276 nM | < 10 nM | 389 nM | 330 nM | 444 nM | 596 nM | 306 nM | 459 nM | GI50 [21]: < 10 nM; GI50 [22]: 1600 nM; GI50 [23]: 449 nM; GI50 [24]: 316 nM; GI50 [25]: 325 nM; GI50 [26]: 457 nM; GI50 [27]: 2150 nM; GI50 [28]: 2040 nM; GI50 [29]: 592 nM |
